Reference: patent publication US20120083522A1, “MODULATION OF INFLAMMATORY RESPONSES BY FACTOR XI” (Isis Pharmaceuitcals, inc., priority 2009, published 2012)

Columns and labels:
human Factor XI mRNA [1] = test: Antisense inhibition in HepG2 cells by microwalk gapmers, 8,000 nM, electroporation (Example 14); type: cell-based; conditions: HepG2 cells, 8,000 nM
Outline: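 Percent reduction of Factor XI transcript, relative to untreated controls, by real-time PCR with RIBOGREEN normalisation. Readout taken about 24 h after electroporating HepG2 cells with 8,000 nM oligonucleotide. Gapmers are 5-10-5, 5-8-5 or 6-8-6 MOE wings, phosphorothioate backbone.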

human Factor XI mRNA [2] = test: Dose-dependent inhibition in cyno primary hepatocytes, electroporation (Example 6); type: cell-based, cynomolgus monkey; conditions: approx. 16 h
Experimental: Cells were plated at a density of 35,000 cells per well and transfected via electroporation with 0.74 nM, 2.2 nM, 6.7 nM, 20 nM, 60 nM, and 180 nM concentrations of antisense oligonucleotide, as specified in Table 13. After a treatment period of approximately 16 hours, RNA was isolated from the cells and human Factor XI mRNA levels were measured by quantitative real-time PCR. Human Factor XI primer probe set RTS 2966 was used to measure mRNA levels. Factor XI mRNA levels were adjusted according to total RNA content, as measured by RIBOGREEN®. Results are presented as percent inhibition of human Factor XI, relative to untreated control cells.

human Factor XI mRNA [3] = test: Dose-dependent inhibition in HepG2 cells, electroporation (Example 4); type: cell-based; conditions: 16 hours
Outline: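 HepG2 cells electroporated with 0.7, 2.2, 6.7 or 20 μM antisense gapmer and harvested after ~16 h. Factor XI mRNA quantified by qRT-PCR (primer probe set RTS 2966), normalised to total RNA (RIBOGREEN). Reported as percent inhibition versus untreated control cells.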

[4] = Tolerability in Sprague-Dawley rats: body and organ weight (Example 19); type: in vivo; conditions: 50 mg/kg s.c. twice per week for 6 weeks, change over weight at start of study
Source text: Urine samples were taken before the start of treatment.
The body weights are presented in Table 78 and are expressed as a percent change over the weights taken at the start of the study.

human Factor XI mRNA [5] = test: Dose-dependent inhibition in HepB3 cells, electroporation (Example 7); type: cell-based; conditions: approx. 16 h
Experimental: The gapmers were also transfected via electroporation and their dose dependent inhibition of human Factor XI mRNA was measured. Cells were plated at a density of 20,000 cells per well and transfected via electroporation with 41.15 nM, 123.457 nM, 370.37 nM, 1111.11 nM, 3333.33 nM, and 10,000 nM concentrations of antisense oligonucleotide, as specified in Table 15. After a treatment period of approximately 16 hours, RNA was isolated from the cells and human Factor XI mRNA levels were measured by quantitative real-time PCR. Human Factor XI primer probe set RTS 2966 was used to measure mRNA levels. Factor XI mRNA levels were adjusted according to total RNA content, as measured by RIBOGREEN®. Results are presented as percent inhibition of human Factor XI, relative to untreated control cells.

human Factor XI mRNA [6] = test: Dose-dependent inhibition in HepG2 cells, lipofectin (Example 4); type: cell-based; conditions: 16 hours
Outline: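 Read-out was percent inhibition of Factor XI mRNA relative to untreated controls, by qRT-PCR (RTS 2966) adjusted for RIBOGREEN-measured total RNA. Cells received antisense oligonucleotide at 9.375 to 75 nM (four levels) via lipofectin. Treatment lasted approximately 16 hours, with plating at 10,000 cells per well.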

Substance	Percent inhibition of human Factor XI mRNA levels (human Factor XI mRNA [1]) [%]	percent inhibition of human Factor XI mRNA (human Factor XI mRNA [2]; 0.74 nM) [%]	percent inhibition of human Factor XI mRNA (human Factor XI mRNA [2]; 2.2 nM) [%]	percent inhibition of human Factor XI mRNA (human Factor XI mRNA [2]; 6.7 nM) [%]	percent inhibition of human Factor XI mRNA (human Factor XI mRNA [2]; 20 nM) [%]	percent inhibition of human Factor XI mRNA (human Factor XI mRNA [2]; 60 nM) [%]	percent inhibition of human Factor XI mRNA (human Factor XI mRNA [2]; 180 nM) [%]	percent inhibition of Factor XI mRNA, relative to untreated control cells (human Factor XI mRNA [3]; 0.7 μM) [%]	percent inhibition of Factor XI mRNA, relative to untreated control cells (human Factor XI mRNA [3]; 2.2 μM) [%]	percent inhibition of Factor XI mRNA, relative to untreated control cells (human Factor XI mRNA [3]; 6.7 μM) [%]	percent inhibition of Factor XI mRNA, relative to untreated control cells (human Factor XI mRNA [3]; 20 μM) [%]	Percent change in Body weight [4] [%]	percent inhibition of human Factor XI mRNA (human Factor XI mRNA [5]; 41.15 nM) [%]	percent inhibition of human Factor XI mRNA (human Factor XI mRNA [5]; 123.457 nM) [%]	percent inhibition of human Factor XI mRNA (human Factor XI mRNA [5]; 370.37 nM) [%]	percent inhibition of human Factor XI mRNA (human Factor XI mRNA [5]; 1111.11 nM) [%]	percent inhibition of human Factor XI mRNA (human Factor XI mRNA [5]; 3333.33 nM) [%]	percent inhibition of human Factor XI mRNA (human Factor XI mRNA [5]; 10000 nM) [%]	percent inhibition of Factor XI mRNA, relative to untreated control cells (human Factor XI mRNA [6]; 9.375 nM) [%]	percent inhibition of Factor XI mRNA, relative to untreated control cells (human Factor XI mRNA [6]; 18.75 nM) [%]	also measured
416825 (antisense GCCCTTCATGTCTAGGTCCA; 5-10-5 gapmer, wing sugar chemistry not given here, further chemistry not given here) [compound 416825]	90	5	22	51	61	77	84	27	74	92	98	−18	32	40	48	75	90	92	23	52	percent inhibition of Factor XI mRNA, relative to untreated control cells (human Factor XI mRNA [6]; 37.5 nM): 73%; percent inhibition of Factor XI mRNA, relative to untreated control cells (human Factor XI mRNA [6]; 75 nM): 92%
416850 (antisense TGCACAGTTTCTGGCAGGCC; 5-10-5 gapmer, wing sugar chemistry not given here, further chemistry not given here) [compound 416850]	91	2	20	24	65	69	67	14	25	81	91	−33	26	38	51	73	90	95	4	30	percent inhibition of Factor XI mRNA, relative to untreated control cells (human Factor XI mRNA [6]; 37.5 nM): 67%; percent inhibition of Factor XI mRNA, relative to untreated control cells (human Factor XI mRNA [6]; 75 nM): 84%
416858 (antisense ACGGCATTGGTGCACAGTTT; 5-10-5 gapmer, wing sugar chemistry not given here, further chemistry not given here) [compound 416858]	90	2	13	22	44	63	68	5	20	56	86	−21	23	45	52	64	87	92	0	28	percent inhibition of Factor XI mRNA, relative to untreated control cells (human Factor XI mRNA [6]; 37.5 nM): 54%; percent inhibition of Factor XI mRNA, relative to untreated control cells (human Factor XI mRNA [6]; 75 nM): 82%
416864 (antisense GGCAGCGGACGGCATTGGTG; 5-10-5 gapmer, wing sugar chemistry not given here, further chemistry not given here) [compound 416864]	88	0	1	15	23	47	64	32	65	78	90	−24	4	3	6	35	75	87	18	43	percent inhibition of Factor XI mRNA, relative to untreated control cells (human Factor XI mRNA [6]; 37.5 nM): 62%; percent inhibition of Factor XI mRNA, relative to untreated control cells (human Factor XI mRNA [6]; 75 nM): 78%
